This passage reports GI50 and TGI results from PubChem BioAssay (NCI).

Each structure is given as a SMILES string.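 These data come from cells grown in 96-well plates and exposed to compound for 48 hours at five concentrations. GI50 marks 50% less growth. At the TGI there is no net growth.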

Test systems include HL-60(TB) leukemia; MDA-MB-435; T-47D breast; CAKI-1 renal; A498 renal; 786-0 renal; A549 NSCLC; UACC-257 melanoma; SW-620 colon; SK-MEL-5 melanoma.
Assay in all cases: NCI tumour cell line growth inhibition, 48 h

Take `CCOc1cccc(/C=N/NC(=O)c2cccc(Nc3ccnc(C(F)(F)F)c3)c2)c1O`: the GI50 is 0.262 µM with HL-60(TB) leukemia; 3.1 µM with MDA-MB-435; 0.814 µM with T-47D breast; 0.772 µM with CAKI-1 renal; 15 µM in the assay on A498 renal; 1.18 µM in the assay on 786-0 renal. The GI50 with A549 NSCLC was 3.73 µM; in the assay on UACC-257 melanoma it was 3.09 µM; with SW-620 colon, 3.04 µM; in the assay with SK-MEL-5 melanoma, 0.676 µM. Also, the TGI with HL-60(TB) leukemia is 1.01 µM; in the assay on MDA-MB-435, more than 51.2 µM; in the assay on T-47D breast it was 19 µM; in the assay on CAKI-1 renal it was 32 µM; in the assay with A498 renal, more than 76.9 µM; in the assay with 786-0 renal, more than 20.7 µM. Also, the TGI in the assay on A549 NSCLC was more than 100 µM; in the assay on UACC-257 melanoma, 24 µM; with SW-620 colon, more than 88.7 µM; in the assay with SK-MEL-5 melanoma, 7.84 µM.
In the case of `Cc1cc(Cl)ccc1OCC(=O)Nc1nc2c(Cl)cccc2s1`, the GI50 in the assay with HL-60(TB) leukemia is 5.63 µM; with MDA-MB-435, more than 100 µM; with T-47D breast, more than 100 µM; in the assay on CAKI-1 renal it was more than 100 µM; in the assay on A498 renal, more than 100 µM; in the assay on 786-0 renal, 26.4 µM. The GI50 in the assay with A549 NSCLC was 16.7 µM; in the assay on UACC-257 melanoma it was more than 100 µM; in the assay on SW-620 colon, more than 100 µM; in the assay with SK-MEL-5 melanoma it was more than 100 µM. In addition, the TGI in the assay with HL-60(TB) leukemia, in the assay on MDA-MB-435, in the assay with T-47D breast, in the assay on CAKI-1 renal, in the assay on A498 renal and with 786-0 renal was more than 100 µM each time. Moreover, the TGI in the assay with A549 NSCLC is 42 µM; in the assay with UACC-257 melanoma, more than 100 µM; in the assay on SW-620 colon, more than 100 µM; in the assay with SK-MEL-5 melanoma, more than 100 µM.
As for `O=c1[nH]c2ccccc2cc1-c1nc2ccc(Cl)cc2[nH]1`, the GI50 in the assay on HL-60(TB) leukemia was 3.24 µM; in the assay with MDA-MB-435, 4.39 µM; in the assay with T-47D breast, 3.33 µM; in the assay with CAKI-1 renal, 1.02 µM; with A498 renal, 2.48 µM; in the assay on 786-0 renal it was 7.42 µM. Moreover, the GI50 was 5.15 µM with A549 NSCLC, 13.9 µM in the assay with UACC-257 melanoma, 4.81 µM in the assay with SW-620 colon and 3.4 µM in the assay on SK-MEL-5 melanoma. For the same compound, the TGI in the assay on HL-60(TB) leukemia is 10.4 µM; in the assay with MDA-MB-435, more than 100 µM; with T-47D breast it was more than 100 µM; in the assay on CAKI-1 renal it was more than 100 µM; with A498 renal, 15.7 µM; with 786-0 renal it was more than 100 µM. Besides, the TGI is more than 100 µM in the assay on A549 NSCLC, more than 100 µM in the assay on UACC-257 melanoma, more than 100 µM in the assay with SW-620 colon and 32.5 µM in the assay on SK-MEL-5 melanoma.
Regarding `CCN1C(=O)c2ccc3c4c(ccc(c24)C1=O)C(=O)N(CCCNCc1ccccc1OC)C3=O`, the GI50 in the assay with HL-60(TB) leukemia was 1.11 µM; in the assay on MDA-MB-435, 0.173 µM; with T-47D breast it was 1 µM; with CAKI-1 renal it was 0.791 µM; with A498 renal, 0.383 µM; in the assay on 786-0 renal it was 1.33 µM. Moreover, the GI50 in the assay on A549 NSCLC is 0.78 µM; with UACC-257 melanoma, 0.264 µM; in the assay on SW-620 colon, 0.362 µM; in the assay on SK-MEL-5 melanoma, 0.164 µM. Moreover, the TGI in the assay with HL-60(TB) leukemia came to 3.6 µM; with MDA-MB-435 it was 0.322 µM; with T-47D breast, 3.29 µM; in the assay on CAKI-1 renal it was 2.47 µM; in the assay on A498 renal, 1.99 µM; with 786-0 renal it was 5.88 µM. Also, the TGI in the assay on A549 NSCLC stood at 2.49 µM; in the assay with UACC-257 melanoma, 0.88 µM; in the assay with SW-620 colon, 1.77 µM; with SK-MEL-5 melanoma, 0.319 µM.
`CN(c1ccc(NC(=O)Nc2c(Cl)cccc2Cl)cc1)c1ccnc(Nc2cccc(CS(C)(=O)=O)c2)n1`: the GI50 with HL-60(TB) leukemia is 24.6 µM; in the assay with MDA-MB-435, 2.26 µM; with T-47D breast it was 4.46 µM; with CAKI-1 renal, 4.53 µM; with A498 renal it was 4.4 µM; in the assay on 786-0 renal, 3.63 µM. The GI50 in the assay on A549 NSCLC is 1.65 µM; in the assay with UACC-257 melanoma, 1.94 µM; in the assay with SW-620 colon, 1.62 µM; in the assay with SK-MEL-5 melanoma it was 2.79 µM. The TGI in the assay on HL-60(TB) leukemia is more than 25 µM; in the assay on MDA-MB-435 it was 10.9 µM; in the assay with T-47D breast, 13.2 µM; with CAKI-1 renal it was 21 µM; with A498 renal it was more than 20.3 µM; with 786-0 renal, 10.6 µM. The TGI with A549 NSCLC was 7.66 µM; with UACC-257 melanoma, 6.55 µM; in the assay with SW-620 colon, more than 16.8 µM; with SK-MEL-5 melanoma, 7.09 µM.
